Literature values as cited in patent publication US20250213503A1, “TREATMENT OF CANCER WITH S1P RECEPTOR AGONISTS” (PRIOTHERA SAS, priority 2022, published 2025).

Target: S1PR1 (Homo sapiens, UniProt P21453)
Sequence (P21453 whole entry, species assumed): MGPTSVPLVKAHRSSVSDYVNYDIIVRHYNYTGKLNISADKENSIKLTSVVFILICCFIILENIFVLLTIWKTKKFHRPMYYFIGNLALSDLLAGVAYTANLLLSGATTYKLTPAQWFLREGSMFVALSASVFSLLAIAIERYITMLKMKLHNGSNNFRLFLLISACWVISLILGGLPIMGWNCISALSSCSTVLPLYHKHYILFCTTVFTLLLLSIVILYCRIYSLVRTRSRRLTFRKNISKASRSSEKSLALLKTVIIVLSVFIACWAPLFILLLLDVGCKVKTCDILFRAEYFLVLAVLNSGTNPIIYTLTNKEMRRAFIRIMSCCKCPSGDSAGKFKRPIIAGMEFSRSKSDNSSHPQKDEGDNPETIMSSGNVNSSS

Structure (SMILES): CCCCCCCCc1ccc(CCC(N)(CO)CO)cc1 [FTY720]
- selectivity for S1PR1 versus S1PR3-5: poor selectivity for S1PR1 versus S1PR3-5
